Laboratory results as given in ChEMBL document CHEMBL4402557, “Nidufexor (LMB763), a Novel FXR Modulator for the Treatment of Nonalcoholic Steatohepatitis” (J Med Chem, 2020).
pEC50: −log10 of the molar value. Converted amounts (≈) assume the structure as drawn. The source made the active and inactive calls. No cut-off for these calls is given here.

Assays:
Bile acid receptor [1] = target: T1, Bile acid receptor (Homo sapiens, UniProt Q96RI1); assay: Agonist activity at GST-tagged human FXR-LBD (193 to 472 residues) using biotinylated SRC-1 peptide as substrate incubated for 1 hrs by HTRF assay
T1 sequence (Q96RI1 whole entry): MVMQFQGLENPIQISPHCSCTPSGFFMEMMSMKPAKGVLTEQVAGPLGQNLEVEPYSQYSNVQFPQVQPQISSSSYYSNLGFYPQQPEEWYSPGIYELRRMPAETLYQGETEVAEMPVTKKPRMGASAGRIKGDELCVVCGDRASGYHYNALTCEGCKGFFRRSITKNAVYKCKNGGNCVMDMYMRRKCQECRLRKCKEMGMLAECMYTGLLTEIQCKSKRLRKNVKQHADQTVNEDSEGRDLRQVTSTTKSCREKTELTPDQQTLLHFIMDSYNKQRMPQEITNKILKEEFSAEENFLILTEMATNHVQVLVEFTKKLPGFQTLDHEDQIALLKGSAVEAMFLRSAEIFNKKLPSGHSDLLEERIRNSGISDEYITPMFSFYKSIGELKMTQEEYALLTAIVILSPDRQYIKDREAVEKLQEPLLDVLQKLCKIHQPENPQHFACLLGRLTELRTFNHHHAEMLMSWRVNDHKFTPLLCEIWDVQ

Bile acid receptor [2] = target: T1, Bile acid receptor; assay: Agonist activity at FXR transfected in human HEK293T cells o-expressing pGL3/hBSEP/luc incubated for 24 hrs by Steady-Glo reagent based luciferase reporter gene assay; format: cell-based
Mus musculus = assay: Anti Steato-hepatitic activity in STZ/HFD induced C57BL/6J mouse STAM model assessed as reduction in NAS at 25 mg/kg, po administered via oral gavage once daily for 3 weeks and measured on 9 week by H and E staining based assay; format: functional, organism-based
[3] = Solubility of compound in pH 6.5 FASSIF at 2 mg measured for 5 to 60 mins by UV spectroscopic method; format: physicochemical
[4] = Oral bioavailability in Wistar rat at 10 mg/kg in presence of TRIS salt; format: ADME, organism-based; details: in vivo
[5] = Clearance in Wistar rat at 3 mg/kg, iv; format: ADME, organism-based; details: in vivo
[6] = Oral bioavailability in Wistar rat at 100 mg/kg in presence of TRIS salt; format: ADME, organism-based; details: in vivo
[7] = Permeability of the compound by PAMPA; format: ADME
[8] = Half life in Wistar rat at 3 mg/kg, iv; format: ADME, organism-based; details: in vivo
[9] = Oral bioavailability in Wistar rat at 10 mg/kg in presence of 0.5% CMC/0.5% Tween 80; format: ADME, organism-based; details: in vivo
[10] = Volume of distribution at steady state in Wistar rat at 3 mg/kg, iv; format: ADME, organism-based; details: in vivo, read-out: Vdss
[11] = Oral bioavailability in Wistar rat at 10 mg/kg in presence of PEG 300/D5W(3:1); format: ADME, organism-based; details: in vivo
[12] = Lipophilicity, logD of compound at pH 6.8; format: physicochemical; details: buffer

CC(=O)NCCN(C)C(=O)c1nn(C)c2c1COc1ccccc1-2
pEC50 (Bile acid receptor [1]): < 5.00

CC(=O)NCCN(Cc1ccccc1)C(=O)c1n[nH]c2c1COc1ccc(Br)cc1-2
pEC50 (Bile acid receptor [2]): 4.96 | pEC50 (Bile acid receptor [1]): < 5.00

CC(=O)NCCNC(=O)c1nn(C)c2c1COc1ccccc1-2
pEC50 (Bile acid receptor [1]): < 5.00

CC[C@H]1[C@@H](O)[C@@H]2[C@H](CC[C@]3(C)[C@@H]([C@H](C)CCC(=O)O)CC[C@@H]23)[C@@]2(C)CC[C@@H](O)C[C@@H]12
Activity (Mus musculus): inactive

Cn1nc(C(=O)N(CC(=O)Nc2cc(C(=O)O)ccc2F)Cc2cccc(F)c2)c2c1-c1cc(F)ccc1OC2
solubility [3]: 46 µM (≈ 25.3 µg/mL) | bioavailability [4]: 56% | clearance [5]: 9.6 mL/min/kg | bioavailability [6]: 28% | permeability [7]: 86% | half-life [8]: 3.6 h | bioavailability [9]: 5% | Vd [10]: 1.6 L/kg | bioavailability [11]: 36%

Cn1nc(C(=O)N(CCNc2cc(C(=O)O)ccc2F)Cc2cccc(F)c2)c2c1-c1cc(F)ccc1OC2
solubility [3]: > 175 µM | bioavailability [4]: 15% | clearance [5]: 19.9 mL/min/kg | bioavailability [6]: 12% | permeability [7]: 96% | half-life [8]: 1.97 h | bioavailability [9]: 17% | Vd [10]: 1.43 L/kg | bioavailability [11]: 22%

CC(=O)NCCN(Cc1ccccc1)C(=O)c1nn(C)c2c1COc1ccc(Br)cc1-2
solubility [3]: 73 µM (≈ 35.3 µg/mL)

CC(=O)NCCN(Cc1ccccc1)C(=O)c1c2c(nn1C)-c1cc(Br)ccc1OC2
pEC50 (Bile acid receptor [2]): < 4.70 | pEC50 (Bile acid receptor [1]): 5.22

CC(=O)NCCN(Cc1ccccc1)C(=O)c1nn(C)c2c1COc1ccc(C3CC3)cc1-2
solubility [3]: 9 µM (≈ 4 µg/mL)

O=C(O)c1cc(F)c2nc(N3[C@@H]4CC[C@H]3C[C@@H](OCc3c(-c5ccccc5OC(F)(F)F)noc3C3CC3)C4)sc2c1 [TROPIFEXOR]
solubility [3]: 110 µM (≈ 66.4 µg/mL) | logD [12]: 3.2

CC(=O)NCCN(C(=O)c1nn(C)c2c1COc1ccc(Cl)cc1-2)C(C)c1ccccc1 (racemic)
pEC50 (Bile acid receptor [2]): < 5.00 | pEC50 (Bile acid receptor [1]): < 5.00

CC(=O)NCCN(Cc1ccccc1F)C(=O)c1nn(C)c2c1COc1ccc(Br)cc1-2
solubility [3]: < 2 µM

CC(=O)NCCN(Cc1ccccc1)C(=O)c1nn(C)c2c1COc1ccc(I)cc1-2
solubility [3]: 3 µM (≈ 1.59 µg/mL)

CC(=O)NCCN(Cc1ccccc1)C(=O)c1nn(C(C)C)c2c1COc1ccc(Br)cc1-2
pEC50 (Bile acid receptor [2]): 5.57 | pEC50 (Bile acid receptor [1]): 5.22

CC(=O)NCCN(Cc1ccccn1)C(=O)c1nn(C)c2c1COc1ccc(Br)cc1-2
solubility [3]: < 2 µM

CC(=O)NCCN(Cc1cccc(F)c1)C(=O)c1nn(C)c2c1COc1ccc(Br)cc1-2
solubility [3]: 80 µM (≈ 40.1 µg/mL)

CC(=O)NCCN(Cc1ccc(F)cc1)C(=O)c1nn(C)c2c1COc1ccc(Br)cc1-2
solubility [3]: 41 µM (≈ 20.6 µg/mL)

CC(=O)NCCN(Cc1ccccc1)C(=O)c1nn(C)c2c1COc1ccccc1-2
solubility [3]: > 175 µM

CC(=O)NCCN(Cc1ccccc1)C(=O)c1nn(C)c2c1COc1ccc(Cl)cc1-2
solubility [3]: > 175 µM
